The text below walks through data of the NIST ThermoML archive (doi:10.1016/j.fluid.2004.10.027).

Broadly, the mass density is mass per unit of volume. As a reminder, the vapor or sublimation pressure is the pressure of vapour in equilibrium with the condensed phase. The term refractive index denotes the speed of light in vacuum divided by its phase velocity in the sample.

± gives the expanded uncertainty stated by the source.

For series [1] the following is noted: Liquid; for mass density: 298.15 K, 101.33 kPa.
Series [2] can be described thus: refractive index (Na D-line) (dimensionless). The settings on record: 298.15 K; 101.33 kPa; Liquid; Standard Abbe refractometry.

`CCCCCCCCCC` [decane]: the mass density in series [1] is 726.4 ± 2.9 kg/m3. The “vapor or sublimation pressure” value in series [1] (445.25 K) turned out to be 95.8 ± 4.9 kPa. Further, the refractive index in series [2] is on record as 1.4097 ± 0.0007.
Regarding `O=C1CCCCC1` [cyclohexanone], the mass density in series [1] is listed as 945.1 ± 1.1 kg/m3. For the same compound, the “vapor or sublimation pressure” value in series [1] (426.45 K) was found to be 95.8 ± 4.8 kPa. The refractive index in series [2] is recorded as 1.451 ± 0.0007.
`Cc1ccccc1C` [1,2-dimethylbenzene]: the mass density in series [1] is reported as 875.9 ± 1.7 kg/m3. Further, the “vapor or sublimation pressure” value in series [1] (415.55 K) is on record as 95.8 ± 4.8 kPa. In series [2], the refractive index was found to be 1.503 ± 0.0007.
For `C1CCOC1` [tetrahydrofuran], the mass density in series [1] amounted to 889.2 ± 4.7 kg/m3. In addition, the “vapor or sublimation pressure” value in series [1] (337.55 K) amounted to 95.8 ± 4.8 kPa. The refractive index in series [2] is on record as 1.4072 ± 0.0007.
For `Cc1cccc(C)c1` [1,3-dimethylbenzene], in series [1], the mass density turned out to be 860.1 ± 1.8 kg/m3. Besides, the “vapor or sublimation pressure” value in series [1] (410.35 K) is reported as 95.8 ± 4.8 kPa. Further, the refractive index in series [2] is 1.4946 ± 0.0007.
For `Cc1ccc(C)cc1` [1,4-dimethylbenzene], the mass density in series [1] came out at 865.6 ± 4.7 kg/m3. For the same compound, the “vapor or sublimation pressure” value in series [1] (409.35 K) came to 95.8 ± 4.8 kPa. Besides, the refractive index in series [2] is reported as 1.4933 ± 0.0007.
`COCCOC` [1,2-dimethoxyethane]: the mass density in series [1] worked out at 863.7 ± 1.8 kg/m3. Also, the “vapor or sublimation pressure” value in series [1] (357.05 K) came to 95.8 ± 4.8 kPa. In addition, the refractive index in series [2] was 1.3781 ± 0.0007.
